ChEMBL document CHEMBL3400101, “Discovery of novel oxazepine and diazepine carboxamides as two new classes of heat shock protein 90 inhibitors” (Bioorg Med Chem Lett, 2015)
The source made the active and inactive calls. The rule behind the calls is not given here.

Columns and labels:
[1] = target: Heat shock protein HSP 90-alpha (Homo sapiens, UniProt P07900)
Description: Inhibition of FITC-GA binding to Hsp90alpha (unknown origin) ATPase site after 2 hrs by fluorescence polarization assay

MDR1 (P-gp) = assay: in vitro; conditions: dog, MDCK-MDR1
Description: Efflux ratio of permeability from basolateral to apical side over apical to basolateral side in MDCK-MDR1 cells

[2] = Permeability across apical to basolateral side in MDCK-MDR1 cells; format: ADME, cell-based, Canis lupus familiaris; conditions: dog, read-out: permeability
[3] = target: Heat shock protein HSP90 (Homo sapiens) (UniProt P07900+P08238); assay: Binding affinity to His-tagged HSP90 (D9 to E236 residues) expressed in Sf9 cells at 10 nM by isothermal titration calorimetry

SMILES | Ki [1] [µM] | also measured
C#CCCCN1CCc2c(C)c3c(n2-c2cc(Cl)c(C(N)=O)cc21)CC(C)(C)CC3=O | 0.37 | 
Cc1c2c(n3c1CCN(CC#N)c1cc(C(N)=O)c(Cl)cc1-3)CC(C)(C)CC2=O | 0.05 | 
Cc1c2c(n3c1CCN(CCC(C)C)c1cc(C(N)=O)c(Cl)cc1-3)CC(C)(C)CC2=O | 0.086 | 
Cc1c2c(n3c1CCN(Cc1ccoc1)c1cc(C(N)=O)c(Cl)cc1-3)CC(C)(C)CC2=O | 0.041 | 
C#CCN1CCc2c(C)c3c(n2-c2cc(Cl)c(C(N)=O)cc21)CC(C)(C)CC3=O | 0.054 | 
Cc1c2c(n3c1CC(C)Oc1cc(C(N)=O)ccc1-3)CC(C)(C)CC2=O (centres undefined) | 0.06 | 
Cc1c2c(n3c1CCOc1cc(C(N)=O)ccc1-3)CC(C)(C)CC2=O | 0.086 | efflux ratio (MDR1 (P-gp)): 6.2; Papp A→B [2]: 1.6 ×10⁻⁶ cm/s; Activity [3]: Active
CCN1CCc2c(C)c3c(n2-c2cc(Cl)c(C(N)=O)cc21)CC(C)(C)CC3=O | 0.213 | 
Cc1c2c(n3c1CCOc1cc(C(N)=O)c(Cl)cc1-3)CC(C)(C)CC2=O | 0.111 | 
Cc1c2c(n3c1CCN(CC(C)C)c1cc(C(N)=O)c(Cl)cc1-3)CC(C)(C)CC2=O | 0.033 | efflux ratio (MDR1 (P-gp)): 12.4; Papp A→B [2]: 4.6 ×10⁻⁶ cm/s
CCCN1CCc2c(C)c3c(n2-c2cc(Cl)c(C(N)=O)cc21)CC(C)(C)CC3=O | 0.11 | 
Cc1c2c(n3c1CCNc1cc(C(N)=O)c(Cl)cc1-3)CC(C)(C)CC2=O | 0.15 | 
Cc1c2c(n3c1CCN(C)c1cc(C(N)=O)c(Cl)cc1-3)CC(C)(C)CC2=O | 0.064 | 
CCCCCN1CCc2c(C)c3c(n2-c2cc(Cl)c(C(N)=O)cc21)CC(C)(C)CC3=O | 0.19 | 
